Experimental data reported in US6822146B2, “Sulfonylurea-tolerant sunflower line M7” (priority 2000, dated 2004).
Where two headings read alike, the source gives them in different places.

Legend:
[1] = tested on: H89A × RHA274 (sulfonylurea-susceptible hybrid); experiment: Test G control of volunteer sunflower, H89A × RHA274; assay type: in vivo; details: rated 4 weeks after application, scale 0-100
BC2-M3M11 = experiment: Test G control of volunteer sunflower, BC2-M3M11; assay type: in vivo; details: rated 4 weeks after application, scale 0-100
BC2-M3M12 = experiment: Test G control of volunteer sunflower, BC2-M3M12; assay type: in vivo; details: rated 4 weeks after application, scale 0-100
[2] = tested on: mutants originating from M11 and M12; details: Test G rates
Source text: This test involved sulfonylurea-resistant sunflower progeny BC2-M3M11 and BC2-M3M12, derived from M11 and M12, respectively. Also, a sulfonylurea-susceptible hybrid, H89A×RHA274, was included for comparison. Plants were sprayed with formulated herbicides at the 4-leaf stage. The efficacy of the treatments on the sunflowers was visually rated 4 weeks after application, using a scale where 0 means no control of the sunflowers, 85 means sufficient efficacy level to stop plants from flowering and propagating, and 100 means a complete destruction of the mutants.
Weed control in sugar beet requires 2-3 herbicide applications per season to efficiently control weeds in this slow growing crop.

H89A × M4M11 = assay type: in vivo, sunflower; details: variety G
Source text: (§1) To generate the hybrids C, D and E, the fourth generation self-pollinated maintainer mutant lines M4M12, M4M11 and M4M7 were chemically sterilized by applying at the bud “star” flower stage a small amount of gibberellic acid solution to sterilize the pollen according to the general method described in Sunflower Science Technology, J. F. Carter ed. (Number 19 in the series “Agronomy”) pp. 339-386. This treatment enables maintainer plants to behave as CMS inbred lines and allows the production of heterozygous resistant hybrids, with the herbicide resistant source coming from the female side. Such crosses allowed evaluating the sexual effect of the mutation source when introduced on the female side of a cross as described in crosses C, D and E versus the male side of a cross as described in crosses F, G and H. Labels I, J and K identify third generation CMS mutant lines crossed with fourth generation maintainer lines to maintain the highly heritable mutant trait in a male sterile homozygous resistant environment. One skilled in sunflower breeding art understands the meaning of such crosses.
(§2) A rating of 0% phytotoxicity means no crop injury.

H89A × M4M12 = assay type: in vivo, sunflower; details: variety F
Source text: as §1, §2

H89A × M4M7 = assay type: in vivo, sunflower; details: variety H
Source text: as §1, §2

[3] = tested on: Hybrid control: H89A × RHA274; assay type: in vivo, sunflower; details: variety A
Source text: as §1, §2

[4] = tested on: Inbred line control: H89A; assay type: in vivo, sunflower; details: variety B
Source text: as §1, §2

GA-M4M12 × RHA274 = experiment: Test A field trial, phytotoxicity, variety C; assay type: in vivo, sunflower; details: variety C
Source text: as §1, §2

GA-M4M11 × RHA274 = experiment: Test A field trial, phytotoxicity, variety D; assay type: in vivo, sunflower; details: variety D
Source text: as §1, §2

GA-M4M7 × RHA274 = experiment: Test A field trial, phytotoxicity, variety E; assay type: in vivo, sunflower; details: variety E
Source text: as §1, §2

BC3-M4M12 = experiment: Test A field trial, phytotoxicity, variety I; assay type: in vivo, sunflower; details: variety I
Source text: as §1, §2

BC3-M4M11 = experiment: Test A field trial, phytotoxicity, variety J; assay type: in vivo, sunflower; details: variety J
Source text: as §1, §2

BC3-M4M7 = experiment: Test A field trial, phytotoxicity, variety K; assay type: in vivo, sunflower; details: variety K
Source text: as §1, §2

[5] = tested on: Homozygous resistant inbred lines, BC3-M4M12 (I), BC3-M4M11 (J) and BC3-M4M7 (K); experiment: Test A summary, homozygous resistant inbred lines; details: Test A application rates; for tolerance of homozygous resistant inbred lines I, J, K: triflusulfuron-methyl at 20 g a.i./ha
Method: In a small field trial, the sunflower varieties described in Table 4 were sprayed post-emergence with a variety of sulfonylurea herbicide treatments.
Broadcast post-emergence applications of formulated sulfonylurea herbicides were performed at the 6-leaf development stage using four randomly distributed replications. Application rates were chosen to match the usual use rates of these herbicides in the crops they are registered in Europe. All herbicides except for metsulfuron-methyl were sprayed in combination with Citowet® non-ionic ethoxylated alcohol at 0.25% volume of formulated product per volume of water applied per hectare.
The evaluation of the maximum (i.e. peak) injury to sunflower varieties by sulfonylurea herbicides was measured by visual ratings, which are listed in Table 5. A rating of 0% phytotoxicity means no crop injury. […] A rating of 100% means the complete destruction of all plants.

BC4-M5M7 × PHA155 = experiment: Test C field phytotoxicity, BC4-M5M7 × PHA155; assay type: in vivo, sunflower
Source text: as §2

BC4-M5M12 × PHA155 = experiment: Test C field phytotoxicity, BC4-M5M12 × PHA155; assay type: in vivo, sunflower
Source text: as §2

[6] = postemergence 18.75 g a.i./ha, 7 DAT
[7] = postemergence 18.75 g a.i./ha, 15 DAT
[8] = postemergence 18.75 g a.i./ha, 30 DAT
[9] = postemergence 37.5 g a.i./ha, 7 DAT
[10] = postemergence 37.5 g a.i./ha, 15 DAT
[11] = postemergence 37.5 g a.i./ha, 30 DAT

SMILES: O=C(O)COc1ccc(Cl)cc1Cl [2,4-D, 2,4-dichlorophenoxyacetic acid]
- Efficacy on H89A × RHA274 ([1]; 530 g a.i./ha): 100
- Efficacy on BC2-M3M11 (BC2-M3M11; 530 g a.i./ha): 100
- Efficacy on BC2-M3M12 (BC2-M3M12; 530 g a.i./ha): 100
- efficacy against the mutants [2]: completely-destroyed

SMILES: COc1cc(OC)nc(NC(=O)NS(=O)(=O)c2ncccc2C(=O)N(C)C)n1 [Nicosulfuron, nicosulfuron]
- Maximum Phytotoxicity (H89A × M4M11; 30 g a.i./ha post-emergence): 20%
- Maximum Phytotoxicity (H89A × M4M12; 30 g a.i./ha post-emergence): 15%
- Maximum Phytotoxicity (H89A × M4M7; 30 g a.i./ha post-emergence): 16%
- Maximum Phytotoxicity ([3]; 30 g a.i./ha post-emergence): 33%
- Maximum Phytotoxicity ([4]; 30 g a.i./ha post-emergence): 54%
- Maximum Phytotoxicity (GA-M4M12 × RHA274; 30 g a.i./ha post-emergence): 12%
- Maximum Phytotoxicity (GA-M4M11 × RHA274; 30 g a.i./ha post-emergence): 13%
- Maximum Phytotoxicity (GA-M4M7 × RHA274; 30 g a.i./ha post-emergence): 13%
- Maximum Phytotoxicity (BC3-M4M12; 30 g a.i./ha post-emergence): 8%
- Maximum Phytotoxicity (BC3-M4M11; 30 g a.i./ha post-emergence): 23%
- Maximum Phytotoxicity (BC3-M4M7; 30 g a.i./ha post-emergence): 14%
- tolerance of homozygous resistant lines compared with heterozygous hybrids [5]: the homozygous resistant lines were more tolerant
- tolerance of homozygous resistant inbred lines I, J, K [5]: marginally tolerant
- Phytotoxicity Rating After Treatment (BC4-M5M7 × PHA155; [6]): 37%
- Phytotoxicity Rating After Treatment (BC4-M5M7 × PHA155; [7]): 40%
- Phytotoxicity Rating After Treatment (BC4-M5M7 × PHA155; [8]): 18%
- Phytotoxicity Rating After Treatment (BC4-M5M7 × PHA155; [9]): 57%
- Phytotoxicity Rating After Treatment (BC4-M5M7 × PHA155; [10]): 55%
- Phytotoxicity Rating After Treatment (BC4-M5M7 × PHA155; [11]): 50%
- Phytotoxicity Rating After Treatment (BC4-M5M12 × PHA155; [6]): 28%
- Phytotoxicity Rating After Treatment (BC4-M5M12 × PHA155; [7]): 20%
- Phytotoxicity Rating After Treatment (BC4-M5M12 × PHA155; [8]): 18%
- Phytotoxicity Rating After Treatment (BC4-M5M12 × PHA155; [9]): 42%
- Phytotoxicity Rating After Treatment (BC4-M5M12 × PHA155; [10]): 52%
- Phytotoxicity Rating After Treatment (BC4-M5M12 × PHA155; [11]): 50%

SMILES: COC(=O)Nc1cccc(OC(=O)Nc2cccc(C)c2)c1 [Phenmedipham]
- Efficacy on H89A × RHA274 ([1]; 240 g a.i./ha): 0
- Efficacy on BC2-M3M11 (BC2-M3M11; 240 g a.i./ha): 0
- Efficacy on BC2-M3M12 (BC2-M3M12; 240 g a.i./ha): 7
- control of sulfonylurea-susceptible or sulfonylurea-resistant volunteer sunflowers ([2]; phenmedipham alone or combined with triflusulfuron-methyl): ineffective alone

SMILES: COC(=O)c1ccccc1S(=O)(=O)NC(=O)Nc1nc(OC(F)F)cc(OC(F)F)n1 [Primisulfuron-methyl, primisulfuron-methyl]
- Maximum Phytotoxicity (H89A × M4M11; 30 g a.i./ha post-emergence): 73%
- Maximum Phytotoxicity (H89A × M4M12; 30 g a.i./ha post-emergence): 66%
- Maximum Phytotoxicity (H89A × M4M7; 30 g a.i./ha post-emergence): 69%
- Maximum Phytotoxicity ([3]; 30 g a.i./ha post-emergence): 100%
- Maximum Phytotoxicity ([4]; 30 g a.i./ha post-emergence): 100%
- Maximum Phytotoxicity (GA-M4M12 × RHA274; 30 g a.i./ha post-emergence): 71%
- Maximum Phytotoxicity (GA-M4M11 × RHA274; 30 g a.i./ha post-emergence): 75%
- Maximum Phytotoxicity (GA-M4M7 × RHA274; 30 g a.i./ha post-emergence): 74%
- Maximum Phytotoxicity (BC3-M4M12; 30 g a.i./ha post-emergence): 35%
- Maximum Phytotoxicity (BC3-M4M11; 30 g a.i./ha post-emergence): 55%
- Maximum Phytotoxicity (BC3-M4M7; 30 g a.i./ha post-emergence): 51%
- tolerance of homozygous resistant lines compared with heterozygous hybrids [5]: the homozygous resistant lines were more tolerant
- tolerance of homozygous resistant inbred lines I, J, K [5]: less susceptible than the standards

SMILES: COc1nc(C)nc(NC(=O)NS(=O)(=O)c2ccccc2OCCCl)n1 [Triasulfuron, triasulfuron]
- Maximum Phytotoxicity (H89A × M4M11; 20 g a.i./ha post-emergence): 98%
- Maximum Phytotoxicity (H89A × M4M12; 20 g a.i./ha post-emergence): 98%
- Maximum Phytotoxicity (H89A × M4M7; 20 g a.i./ha post-emergence): 98%
- Maximum Phytotoxicity ([3]; 20 g a.i./ha post-emergence): 100%
- Maximum Phytotoxicity ([4]; 20 g a.i./ha post-emergence): 100%
- Maximum Phytotoxicity (GA-M4M12 × RHA274; 20 g a.i./ha post-emergence): 94%
- Maximum Phytotoxicity (GA-M4M11 × RHA274; 20 g a.i./ha post-emergence): 99%
- Maximum Phytotoxicity (GA-M4M7 × RHA274; 20 g a.i./ha post-emergence): 97%
- Maximum Phytotoxicity (BC3-M4M12; 20 g a.i./ha post-emergence): 93%
- Maximum Phytotoxicity (BC3-M4M11; 20 g a.i./ha post-emergence): 95%
- Maximum Phytotoxicity (BC3-M4M7; 20 g a.i./ha post-emergence): 95%
- tolerance of homozygous resistant inbred lines I, J, K [5]: as susceptible as the standards
